Measurements: ChEMBL document CHEMBL1811755, “α-Tocotrienol quinone modulates oxidative stress response and the biochemistry of aging” (Bioorg Med Chem Lett, 2011)
Calls of active or inactive are those of the source. The rule behind the calls is not given here.

Columns and labels:
Fibroblast [1] = experiment: Cytoprotectant activity against L-buthionine-(S,R)-sulfoximine-induced cell death in Leigh syndrome patient fibroblasts assessed as increase of cell viability up to 1000 nM; type: functional, cell-based; settings: Homo sapiens
Fibroblast [2] = experiment: Cytoprotectant activity against L-buthionine-(S,R)-sulfoximine-induced cell death in Friedreich ataxia patient fibroblasts assessed as increase of cell viability up to 1000 nM; type: functional, cell-based; settings: Homo sapiens
Rattus norvegicus [3] = experiment: In vivo metabolic stability in rat assessed as parent compound remaining at 25 mg/kg, po; type: ADME, organism-based; design: dose 25 mg/kg, route oral
Rattus norvegicus [4] = experiment: In vivo metabolic stability in rat assessed as parent compound remaining at 5 mg/kg, iv; type: ADME, organism-based; design: dose 5 mg/kg, route intravenous
[5] = Cytoprotectant activity against L-buthionine-(S,R)-sulfoximine-induced cell death in Friedreich ataxia patient fibroblasts assessed as increase of cell viability; type: functional, cell-based; settings: Homo sapiens, Fibroblast
Rattus norvegicus [6] = experiment: Prolongation of prothrombin time in rat at 100 mg/kg/day, po; type: functional, organism-based
[7] = Plasma concentration in dog at 300 mg/kg/day, po qd for 7 days; type: ADME, organism-based, Canis lupus familiaris; design: route oral
[8] = Bioavailability in fed rat plasma at 10 mg/kg, po; type: ADME, organism-based
[9] = Apparent volume of distribution in rat plasma at 2 mg/kg, iv; type: ADME, organism-based; design: dose 2 mg/kg, route intravenous; settings: read-out: Vz
Plasma [10] = experiment: Volume of infusion in dog plasma at 2 mg/kg, iv; type: ADME, organism-based, Canis lupus familiaris; design: dose 2 mg/kg, route intravenous; settings: in vivo
[11] = Volume of distribution at steady state in dog plasma at 2 mg/kg, iv; type: ADME, organism-based, Canis lupus familiaris; design: dose 2 mg/kg, route intravenous; settings: read-out: Vdss
[12] = Cmax in human plasma at 2 mg/kg, po; type: ADME, organism-based; design: dose 2 mg/kg, route oral
[13] = AUCt in rat plasma at 2 mg/kg, iv; type: ADME, organism-based; design: dose 2 mg/kg, route intravenous
[14] = Tmax in mouse brain at 25 mg/kg, ip; type: ADME, organism-based; design: dose 25 mg/kg, route intraperitoneal
[15] = Cmax in mouse plasma at 25 mg/kg, ip; type: ADME, organism-based; design: dose 25 mg/kg, route intraperitoneal
Brain [16] = experiment: AUCt in mouse brain at 25 mg/kg, ip; type: ADME, organism-based; design: dose 25 mg/kg, route intraperitoneal; settings: in vivo
Rattus norvegicus [17] = experiment: Prolongation of activated partial thromboplastin time in rat at 100 mg/kg/day, po; type: functional, organism-based
Salmonella typhimurium = experiment: Mutagenic activity in Salmonella Typhimurium by Ames test; type: toxicity, organism-based; settings: salmonella enterica subsp. enterica serovar typhimurium
[18] = Tmax in rat plasma at 25 mg/kg, po; type: ADME, organism-based; design: dose 25 mg/kg, route oral
[19] = AUCt in dog plasma at 2 mg/kg, iv; type: ADME, organism-based, Canis lupus familiaris; design: dose 2 mg/kg, route intravenous
[20] = Terminal half life in rat plasma at 10 mg/kg, po; type: ADME, organism-based; design: dose 10 mg/kg, route oral; settings: read-out: beta t1/2 (converted)
[21] = Terminal half life in rat plasma at 2 mg/kg, iv; type: ADME, organism-based; design: dose 2 mg/kg, route intravenous; settings: read-out: beta t1/2 (converted)
Heart = experiment: Drug level in mouse heart at 25 mg/kg, ip; type: ADME, organism-based; design: dose 25 mg/kg, route intraperitoneal; settings: in vivo
[22] = AUCt in dog plasma at 10 mg/kg, po; type: ADME, organism-based, Canis lupus familiaris; design: dose 10 mg/kg, route oral
[23] = AUC (infinity) in dog plasma at 2 mg/kg, iv; type: ADME, organism-based, Canis lupus familiaris; design: dose 2 mg/kg, route intravenous, time infinity
[24] = Cmax in mouse brain at 25 mg/kg, ip; type: ADME, organism-based; design: dose 25 mg/kg, route intraperitoneal
Fibroblast [25] = experiment: Ratio of compound EC50 to idebenone EC50 for cytoprotectant activity in Friedreich ataxia patient fibroblasts; type: functional, Homo sapiens
[26] = Toxicity in rat administered orally once daily for 28 days; type: organism-based; settings: in vivo, po
[27] = Clearance in dog plasma at 2 mg/kg, iv; type: ADME, organism-based, Canis lupus familiaris; design: dose 2 mg/kg, route intravenous
[28] = AUC (infinity) in dog plasma at 10 mg/kg, po; type: ADME, organism-based, Canis lupus familiaris; design: time infinity, dose 10 mg/kg, route oral
[29] = Cmax in rat plasma at 25 mg/kg, po; type: ADME, organism-based; design: dose 25 mg/kg, route oral
Plasma [30] = experiment: AUC (infinity) in rat plasma at 2 mg/kg, iv; type: ADME, organism-based; design: time infinity, dose 2 mg/kg, route intravenous; settings: in vivo
Mus musculus [31] = experiment: Ratio of drug level in mouse brain to serum at 25 mg/kg, ip
Brain [32] = experiment: AUC (infinity) in mouse brain at 25 mg/kg, ip; type: ADME, organism-based; design: time infinity, dose 25 mg/kg, route intraperitoneal; settings: in vivo
Plasma [33] = experiment: Volume of infusion in rat plasma at 2 mg/kg, iv; type: ADME, organism-based; design: dose 2 mg/kg, route intravenous; settings: in vivo
CHO = experiment: Genotoxicity in CHO cells assessed as induction of micronucleus; type: toxicity, cell-based, Cricetulus griseus; settings: chinese hamster
[34] = Terminal half life in mouse brain at 25 mg/kg, ip; type: ADME, organism-based; design: dose 25 mg/kg, route intraperitoneal; settings: read-out: beta t1/2 (converted)
[35] = AUC (infinity) in rat plasma at 10 mg/kg, po; type: ADME, organism-based; design: time infinity, dose 10 mg/kg, route oral
[36] = Toxicity in dog administered orally once daily for 28 days; type: organism-based, Canis lupus familiaris; settings: in vivo, po
[37] = AUCt in rat plasma at 25 mg/kg, po; type: ADME, organism-based; design: dose 25 mg/kg, route oral
[38] = Cmax in dog plasma at 10 mg/kg, po; type: ADME, organism-based, Canis lupus familiaris; design: dose 10 mg/kg, route oral
[39] = Tmax in mouse plasma at 25 mg/kg, ip; type: ADME, organism-based; design: dose 25 mg/kg, route intraperitoneal
Canis familiaris [40] = experiment: Prolongation of activated partial thromboplastin time in dog at 100 mg/kg/day, po; type: functional, organism-based; settings: Canis lupus familiaris
Mus musculus [41] = experiment: Ratio of drug level in mouse heart to serum at 25 mg/kg, ip; settings: other tissue
[42] = Drug level in dog cornea at 300 mg/kg/day, po qd for 7 days; type: ADME, organism-based, Canis lupus familiaris; design: route oral; settings: read-out: Drug uptake
[43] = Terminal half life in dog plasma at 10 mg/kg, po; type: ADME, organism-based, Canis lupus familiaris; design: dose 10 mg/kg, route oral; settings: read-out: beta t1/2 (converted)
Serum = experiment: Drug level in mouse serum at 25 mg/kg, ip; type: ADME, organism-based; design: dose 25 mg/kg, route intraperitoneal; settings: in vivo
[44] = Apparent volume of distribution in dog plasma at 2 mg/kg, iv; type: ADME, organism-based, Canis lupus familiaris; design: dose 2 mg/kg, route intravenous; settings: read-out: Vz
[45] = AUCt in rat plasma at 10 mg/kg, po; type: ADME, organism-based; design: dose 10 mg/kg, route oral
[46] = AUC (infinity) in mouse plasma at 25 mg/kg, ip; type: ADME, organism-based; design: time infinity, dose 25 mg/kg, route intraperitoneal
[47] = Cmax in rat plasma at 10 mg/kg, po; type: ADME, organism-based; design: dose 10 mg/kg, route oral
Canis familiaris [48] = experiment: Prolongation of prothrombin time in dog at 100 mg/kg/day, po; type: functional, organism-based; settings: Canis lupus familiaris
[49] = Drug level in dog retina at 300 mg/kg/day, po qd for 7 days; type: ADME, organism-based, Canis lupus familiaris; design: route oral; settings: read-out: Drug uptake
Fibroblast [50] = experiment: Ratio of compound EC50 to co-enzyme Q10 EC50 for cytoprotectant activity in Friedreich ataxia patient fibroblasts; type: functional, Homo sapiens
[51] = Tmax in rat plasma at 10 mg/kg, po; type: ADME, organism-based; design: dose 10 mg/kg, route oral
[52] = Terminal half life in mouse plasma at 25 mg/kg, ip; type: ADME, organism-based; design: dose 25 mg/kg, route intraperitoneal; settings: read-out: beta t1/2 (converted)
[53] = Tmax in human plasma at 2 mg/kg, po; type: ADME, organism-based; design: dose 2 mg/kg, route oral
[54] = Bioavailability in fasted rat plasma at 25 mg/kg, po; type: ADME, organism-based
[55] = AUCt in mouse plasma at 25 mg/kg, ip; type: ADME, organism-based; design: dose 25 mg/kg, route intraperitoneal
[56] = Tmax in dog plasma at 10 mg/kg, po; type: ADME, organism-based, Canis lupus familiaris; design: dose 10 mg/kg, route oral
[57] = Terminal half life in dog plasma at 2 mg/kg, iv; type: ADME, organism-based, Canis lupus familiaris; design: dose 2 mg/kg, route intravenous; settings: read-out: beta t1/2 (converted)
Fibroblast [58] = experiment: Ratio of compound EC50 to resveratrol EC50 for cytoprotectant activity in Friedreich ataxia patient fibroblasts; type: functional, Homo sapiens
[59] = Bioavailability in dog plasma at 10 mg/kg, po; type: ADME, organism-based, Canis lupus familiaris
[60] = Cytoprotectant activity against L-buthionine-(S,R)-sulfoximine-induced cell death in Leigh syndrome patient fibroblasts assessed as increase of cell viability; type: functional, cell-based; settings: Homo sapiens, Fibroblast
[61] = Volume of distribution at steady state in rat plasma at 2 mg/kg, iv; type: ADME, organism-based; design: dose 2 mg/kg, route intravenous; settings: read-out: Vdss

For `COC1=C(OC)C(=O)C(C/C=C(\C)CC/C=C(\C)CC/C=C(\C)CC/C=C(\C)CC/C=C(\C)CC/C=C(\C)CC/C=C(\C)CC/C=C(\C)CC/C=C(\C)CCC=C(C)C)=C(C)C1=O`, the Activity (Fibroblast [1]) was “inactive” and the Activity (Fibroblast [2]) was “inactive”.
`CC(C)=CCC/C(C)=C/CC/C(C)=C/CC[C@]1(C)CCc2c(C)c(O)c(C)c(C)c2O1` [ALPHA-TOCOTRIENOL] showed a Stability (Rattus norvegicus [3]) of 5% and a Stability (Rattus norvegicus [4]) of 7%.
Compound `COC1=C(OC)C(=O)C(CCCCCCCCCCO)=C(C)C1=O` [IDEBENONE] has an EC50 [5] of 850 nM.
For `Oc1ccc(/C=C/c2cc(O)cc(O)c2)cc1` [RESVERATROL], the EC50 [5] was 1440 nM.
In the case of `CC(C)=CCC/C(C)=C/CC/C(C)=C/CC[C@@](C)(O)CCC1=C(C)C(=O)C(C)=C(C)C1=O` [VATIQUINONE], the Activity (Rattus norvegicus [6]) is reported as “Active”, the concentration at 168 h [7] is reported as 10000 ng/mL and the bioavailability [8] is reported as 89%. The Vd [9] was 3.73 L/kg, the Vi (Plasma [10]) was 0.095 L/kg and the Vd [11] was 2.54 L/kg. For the same compound, the Cmax [12] was 167 ng/mL, the AUC(0-t) [13] was 984 ng·h/mL and the Tmax [14] was 12 h. For the same compound, the Cmax [15] was 1190 ng/mL, the AUCt (Brain [16]) was 7738 ng·h/g and the Activity (Rattus norvegicus [17]) was “Active”. For the same compound, the Activity (Salmonella typhimurium) was “Non-toxic”, the Tmax [18] was 4 h and the AUC(0-t) [19] was 3410 ng·h/mL. For the same compound, the half-life [20] was 3.5 h, the half-life [21] was 3.5 h and the Drug uptake (Heart) was 848 ng/g. It also gave an AUC(0-t) [22] of 2690 ng·h/mL, an AUC(0-inf) [23] of 3570 ng·h/mL and a Cmax [24] of 539 ng/g. For the same compound, the “Ratio EC50” value (Fibroblast [25]) was 100, the NOAEL at 672 h [26] was 100 mg/kg and the clearance [27] was 9.57 mL/min/kg. For the same compound, the AUC(0-inf) [28] was 2820 ng·h/mL, the Cmax [29] was 248 ng/mL and the AUC (Plasma [30]) was 1069 ng·h/mL. It also gave a Ratio (Mus musculus [31]) of 1.83 mL/g, an AUC (Brain [32]) of 10724 ng·h/g and a Vi (Plasma [33]) of 0.117 L/kg. The Activity (CHO) was “Non-toxic”, the half-life [34] was 12.4 h and the AUC(0-inf) [35] was 4780 ng·h/mL. It also gave an NOAEL at 672 h [36] of 100 mg/kg, an AUC(0-t) [37] of 961 ng·h/mL and a Cmax [38] of 442 ng/mL. The EC50 [5] was 24 nM, the Tmax [39] was 0.5 h and the Activity (Canis familiaris [40]) was “Active”. The Ratio (Mus musculus [41]) was 0.71 mL/g, the concentration at 168 h [42] was 755 ng/g and the half-life [43] was 7.6 h. For the same compound, the Drug uptake (Serum) was 300 ng/mL, the Vd [44] was 6.25 L/kg and the AUC(0-t) [45] was 4730 ng·h/mL. The AUC(0-inf) [46] was 5860 ng·h/mL, the Cmax [47] was 931 ng/mL and the Activity (Canis familiaris [48]) was “Active”. The concentration at 168 h [49] was 11200 ng/g, the “Ratio EC50” value (Fibroblast [50]) was 100 and the Tmax [51] was 3.5 h. It also gave a half-life [52] of 7.6 h, a Tmax [53] of 2 h and a bioavailability [54] of 4.1%. It also gave an AUC(0-t) [55] of 4840 ng·h/mL, a Tmax [56] of 2.8 h and a half-life [57] of 7.5 h. For the same compound, the “Ratio EC50” value (Fibroblast [58]) was 100, the bioavailability [59] was 17% and the EC50 [60] was 30 nM. For the same compound, the Vd [61] was 0.222 L/kg.
